In patent US20060211651A1, “Persulfated oligosaccharide acting on selectins and chemokine” (Taisho Pharmaceutical Co., Ltd., priority 2002, published 2006):

How the values were obtained:
ACHN cells = test: Sulfation of versican in [35S]sulfate-labeled ACHN cells; format: cell-based; conditions: 30 mM sodium chlorate, relative to the case without treatment
Experimental: (§1) ACHN cells were pre-incubated at 37° C. for 6 hours in RPMI 1640 containing 10% by weight of bovine fetal serum in the presence or absence of 30 mM sodium chlorate. A confluent monolayer of the resulting ACHN cells was labeled by incubation for 18 hours in the presence or absence of 30 mM sodium chlorate, in a medium of either of:
(i) Eagle minimum basal medium SMEM [sulfate-free; manufactured by BioWhittaker] containing 2% by weight of dialyzed bovine fetal serum in the presence of 0.2 mCi/ml [^35S]Na2SO4 [trade name: Sulfer-35; manufactured by ICN Radiochemicals], or
(ii) methionine-free RPMI 1640 medium [manufactured by Invitrogen] containing 2% by weight of dialyzed bovine fetal serum in the presence of 0.2 mCi/ml [^35S]-methionine [manufactured by ICN Radiochemicals].
Immunoprecipitation was performed as follows, according to the method described in the publication of Kawashima, H. et al. [Int. Immunol., 11, 393-405 (1999); all teachings of which are hereby incorporated by reference] except that beads were washed using buffer A (0.05% Tween 20, 20 mM HEPES-NaOH, 0.15M NaCl, 1 mM CaCl2, 1 mM MgCl2, pH6.8). […]
(§2) Thereafter, the beads were washed with the buffer A, to obtain precipitates. The resulting precipitates were subjected to SDS-agarose-PAGE, and thereafter, signal ascribed to ^35S label on a gel was detected by autoradiography.

CD44-Ig = test: Immunoprecipitation of versican from ACHN conditioned medium with CD44-Ig; format: binding, human; conditions: 30 mM sodium chlorate; ACHN cells; FIG. 1
Experimental: as §1
(§3) Immunoprecipitation was performed as follows, according to the method described in the publication of Kawashima, H. et al. [Int. Immunol., 11, 393-405 (1999); all teachings of which are hereby incorporated by reference] except that beads were washed using buffer A (0.05% Tween 20, 20 mM HEPES-NaOH, 0.15M NaCl, 1 mM CaCl2, 1 mM MgCl2, pH6.8).
(§4) Each of the antibody and the Ig chimera shown in FIG. 1 (equivalent to 10 μg) was coupled to Protein A-Sepharose column (equivalent to 10 μL) by a conventional method, to obtain antibody-coupled Protein A-Sepharose or Ig chimera-coupled Protein A-Sepharose. […]
as §2

L-selectin-Ig = biological target: T1, L-selectin-Ig (Homo sapiens, UniProt P14151); test: Immunoprecipitation of versican from ACHN conditioned medium with L-selectin-Ig; format: binding; conditions: 30 mM sodium chlorate; ACHN cells; FIG. 1
T1 construct: purchased R & D Systems Inc
Experimental: as §1, §3, §4, §2

P-selectin-Ig = test: Immunoprecipitation of versican from ACHN conditioned medium with P-selectin-Ig; format: binding; conditions: 30 mM sodium chlorate; ACHN cells; FIG. 1
Experimental: as §1, §3, §4, §2

T1 sequence (P14151 with tags, fused parts or gaps limits assumed): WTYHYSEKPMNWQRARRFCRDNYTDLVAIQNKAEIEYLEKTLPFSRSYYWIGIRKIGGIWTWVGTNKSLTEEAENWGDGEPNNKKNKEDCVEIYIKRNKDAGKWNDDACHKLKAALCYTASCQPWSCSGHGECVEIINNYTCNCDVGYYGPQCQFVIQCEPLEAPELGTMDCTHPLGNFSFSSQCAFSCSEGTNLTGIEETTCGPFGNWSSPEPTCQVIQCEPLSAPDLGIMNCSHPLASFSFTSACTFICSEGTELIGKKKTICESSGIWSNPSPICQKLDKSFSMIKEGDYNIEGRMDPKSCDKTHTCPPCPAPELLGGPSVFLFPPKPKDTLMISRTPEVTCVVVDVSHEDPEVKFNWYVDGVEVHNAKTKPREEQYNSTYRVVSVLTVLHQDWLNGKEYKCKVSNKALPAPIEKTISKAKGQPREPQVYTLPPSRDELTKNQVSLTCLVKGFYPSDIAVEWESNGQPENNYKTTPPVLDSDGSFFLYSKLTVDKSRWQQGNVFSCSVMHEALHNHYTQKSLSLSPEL

With `[Na+].[O-][Cl+2]([O-])[O-]` [sodium chlorate] the inhibition of sulfation (ACHN cells) was “more than 90%”, the “effect of treatment on interaction between versican and CD44-Ig” value (CD44-Ig) was “not inhibited” and the “effect of treatment on interaction between versican and L-selectin-Ig” value (L-selectin-Ig) was “inhibited”. The “effect of treatment on interaction between versican and P-selectin-Ig” value (P-selectin-Ig) was “inhibited”.
